Assay results: PMC12951562, “SH2scan: Mapping SH2 Domain-Ligand Binding Selectivity for Inhibitors and Degraders” (Journal of Medicinal Chemistry, 2026)
Where two headings read alike, the source gives them in different places. Non-standard residues stand in square brackets, D forms with d. Residues, ends and D or L forms follow the SMILES beside them. *: point of attachment. pY = N[C@@H](Cc1ccc(OP(=O)(O)O)cc1)C(=O)O; Caffeoyl = O=C(/C=C/c1ccc(O)c(O)c1)*

Key:
Assay in all cases: biochemical
Type in all cases: binding
HCK = target: T1, HCK (Homo sapiens, UniProt P08631); conditions: for remaining activity at 10 µM: read-out: percent of DMSO vehicle control
T1 construct: the DNA-tagged SH2 domain concentrations used in this study were <0.1 nM; made in house; host or cells: HEK293 (transient transfection, unpurified extract)
T1 sequence (P08631 144-241 limits assumed): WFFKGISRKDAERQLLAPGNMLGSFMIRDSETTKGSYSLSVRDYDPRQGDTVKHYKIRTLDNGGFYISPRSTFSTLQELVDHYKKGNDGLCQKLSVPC

PIK3R2(SH2dom.C-term.) = target: T2, PIK3R2(SH2dom.C-term.) (Homo sapiens, UniProt O00459); conditions: for KD / Kd: dose-response; for remaining activity at 10 µM: read-out: percent of DMSO vehicle control; for Kd: read-out: KD
T2 construct: SH2dom.C-term. denotes SH2 domain closest to C-terminus of protein; made in house; host or cells: HEK293 (transient transfection, unpurified extract)
T2 sequence (O00459 622-716 limits assumed): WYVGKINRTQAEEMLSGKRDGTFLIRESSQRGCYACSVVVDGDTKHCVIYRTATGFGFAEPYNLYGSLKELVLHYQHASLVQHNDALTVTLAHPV

PIK3R3(SH2dom.C-term.) = target: T3, PIK3R3(SH2dom.C-term.) (Homo sapiens, UniProt Q92569); conditions: for remaining activity at 10 µM: read-out: percent of DMSO vehicle control
T3 construct: SH2dom.C-term. denotes SH2 domain closest to C-terminus of protein; made in house; host or cells: HEK293 (transient transfection, unpurified extract)

SHC3 = target: T4, SHC3 (Homo sapiens, UniProt Q92529); conditions: for remaining activity at 10 µM: read-out: percent of DMSO vehicle control
T4 construct: made in house; host or cells: HEK293 (transient transfection), unpurified extract
T4 sequence (Q92529 1-594): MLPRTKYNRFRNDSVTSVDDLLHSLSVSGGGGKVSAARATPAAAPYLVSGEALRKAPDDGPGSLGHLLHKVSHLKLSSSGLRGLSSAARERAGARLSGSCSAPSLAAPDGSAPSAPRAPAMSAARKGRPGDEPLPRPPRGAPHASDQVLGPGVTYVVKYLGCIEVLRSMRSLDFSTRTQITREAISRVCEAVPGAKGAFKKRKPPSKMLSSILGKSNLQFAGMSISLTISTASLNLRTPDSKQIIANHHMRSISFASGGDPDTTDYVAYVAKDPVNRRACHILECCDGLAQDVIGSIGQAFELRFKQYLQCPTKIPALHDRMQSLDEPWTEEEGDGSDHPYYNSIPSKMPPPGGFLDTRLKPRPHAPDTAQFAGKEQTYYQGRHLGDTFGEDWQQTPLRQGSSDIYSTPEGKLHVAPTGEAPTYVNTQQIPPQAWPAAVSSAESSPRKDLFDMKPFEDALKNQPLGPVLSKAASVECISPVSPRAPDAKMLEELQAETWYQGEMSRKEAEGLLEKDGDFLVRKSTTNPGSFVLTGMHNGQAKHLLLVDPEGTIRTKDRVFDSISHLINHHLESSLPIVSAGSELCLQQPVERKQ

SHIP1 = target: T5, SHIP1 (Homo sapiens, UniProt Q92835); conditions: for percent of DMSO vehicle control: primary screen, 10 μM
T5 construct: made in house; host or cells: HEK293 (transient transfection), unpurified extract
T5 sequence (Q92835 1-1189): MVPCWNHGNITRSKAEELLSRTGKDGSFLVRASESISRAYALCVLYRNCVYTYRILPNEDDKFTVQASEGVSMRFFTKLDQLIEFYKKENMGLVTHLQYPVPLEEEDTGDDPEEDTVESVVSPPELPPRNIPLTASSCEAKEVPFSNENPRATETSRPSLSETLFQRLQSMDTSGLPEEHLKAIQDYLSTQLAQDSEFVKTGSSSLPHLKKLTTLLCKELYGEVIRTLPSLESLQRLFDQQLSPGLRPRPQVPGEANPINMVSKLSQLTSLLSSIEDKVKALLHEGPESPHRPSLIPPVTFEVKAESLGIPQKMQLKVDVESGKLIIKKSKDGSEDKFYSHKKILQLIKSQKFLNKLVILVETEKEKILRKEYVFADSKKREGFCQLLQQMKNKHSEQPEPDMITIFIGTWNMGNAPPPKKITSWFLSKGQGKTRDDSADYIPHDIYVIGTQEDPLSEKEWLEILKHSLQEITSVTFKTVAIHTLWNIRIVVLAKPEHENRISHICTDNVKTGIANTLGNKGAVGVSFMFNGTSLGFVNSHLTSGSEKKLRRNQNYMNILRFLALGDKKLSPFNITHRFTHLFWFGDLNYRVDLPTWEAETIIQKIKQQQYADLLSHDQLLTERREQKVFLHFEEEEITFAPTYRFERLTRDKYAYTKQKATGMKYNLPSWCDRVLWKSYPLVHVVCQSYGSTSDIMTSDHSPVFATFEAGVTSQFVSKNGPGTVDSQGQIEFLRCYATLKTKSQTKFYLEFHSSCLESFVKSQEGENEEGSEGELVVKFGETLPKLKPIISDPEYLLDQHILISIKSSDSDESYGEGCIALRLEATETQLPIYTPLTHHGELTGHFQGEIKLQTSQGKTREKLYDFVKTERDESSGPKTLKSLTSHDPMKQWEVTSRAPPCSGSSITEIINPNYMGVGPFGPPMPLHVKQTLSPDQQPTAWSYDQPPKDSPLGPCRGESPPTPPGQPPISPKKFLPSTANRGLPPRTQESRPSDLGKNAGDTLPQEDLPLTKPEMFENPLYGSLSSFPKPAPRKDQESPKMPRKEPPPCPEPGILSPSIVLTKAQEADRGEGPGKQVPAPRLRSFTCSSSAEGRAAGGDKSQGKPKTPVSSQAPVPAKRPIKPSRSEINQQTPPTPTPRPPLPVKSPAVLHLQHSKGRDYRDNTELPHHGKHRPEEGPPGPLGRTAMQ

SOCS2 = target: T6, SOCS2 (Homo sapiens, UniProt O14508); conditions: for remaining activity at 10 µM: read-out: percent of DMSO vehicle control
T6 construct: made in house; host or cells: HEK293 (transient transfection), unpurified extract
T6 sequence (O14508 1-198): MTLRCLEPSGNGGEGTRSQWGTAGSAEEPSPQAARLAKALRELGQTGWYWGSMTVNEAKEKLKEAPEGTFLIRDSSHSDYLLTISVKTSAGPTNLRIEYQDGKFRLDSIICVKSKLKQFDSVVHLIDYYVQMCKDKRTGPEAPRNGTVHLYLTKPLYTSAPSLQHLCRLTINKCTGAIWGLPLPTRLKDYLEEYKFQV

SOCS3 = target: T7, SOCS3 (Homo sapiens, UniProt O14543); conditions: for remaining activity at 10 µM: read-out: percent of DMSO vehicle control; for KD: dose-response
T7 construct: made in house; host or cells: HEK293 (transient transfection), unpurified extract
T7 sequence (O14543 1-225): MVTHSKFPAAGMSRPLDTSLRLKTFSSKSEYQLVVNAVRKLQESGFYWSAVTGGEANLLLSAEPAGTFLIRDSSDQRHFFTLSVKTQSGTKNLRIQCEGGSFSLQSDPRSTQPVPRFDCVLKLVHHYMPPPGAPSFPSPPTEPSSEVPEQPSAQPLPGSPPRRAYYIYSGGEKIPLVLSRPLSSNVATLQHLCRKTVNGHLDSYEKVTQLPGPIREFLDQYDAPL

YES = target: T8, YES (Homo sapiens, UniProt P07947); conditions: for remaining activity at 10 µM: read-out: percent of DMSO vehicle control
T8 construct: the DNA-tagged SH2 domain concentrations used in this study were <0.1 nM; made in house; host or cells: HEK293 (transient transfection; unpurified cell extract)
T8 sequence (P07947 158-255 limits assumed): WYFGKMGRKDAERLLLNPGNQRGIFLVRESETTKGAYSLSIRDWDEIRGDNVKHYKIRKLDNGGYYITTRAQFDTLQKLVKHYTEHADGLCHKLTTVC

SMILES	Kd (PIK3R3(SH2dom.C-term.))	percent of DMSO vehicle control (SHIP1)	remaining activity at 10 µM (HCK)	KD (PIK3R2(SH2dom.C-term.))	remaining activity at 10 µM (PIK3R2(SH2dom.C-term.))	remaining activity at 10 µM (PIK3R3(SH2dom.C-term.))	remaining activity at 10 µM (SHC3)	remaining activity at 10 µM (SOCS2)	remaining activity at 10 µM (SOCS3)	remaining activity at 10 µM (YES)	remaining activity at 10 µM (HCK; primary screen, 10 μM)	remaining activity at 10 µM (PIK3R2(SH2dom.C-term.); primary screen, 10 μM)	Kd (PIK3R3(SH2dom.C-term.); dose-response, read-out: KD)	remaining activity at 10 µM (PIK3R3(SH2dom.C-term.); primary screen, 10 μM)	remaining activity at 10 µM (SHC3; primary screen, 10 μM)	Kd (SOCS2; dose-response, read-out: KD)	remaining activity at 10 µM (SOCS2; primary screen, 10 μM)	KD (SOCS3)	remaining activity at 10 µM (SOCS3; primary screen, 10 μM)	remaining activity at 10 µM (YES; primary screen, 10 μM)	other results
CC[C@H](C)[C@H](NC(=O)[C@H](CCC(=O)O)NC(=O)[C@H](CCC(=O)O)NC(=O)[C@H](Cc1ccc(OP(=O)(O)O)cc1)NC(C)=O)C(=O)N[C@@H](CCC(=O)O)C(N)=O [Ac-pYEEIE-NH2] (Ac-[pY]EEIE-NH2)	14900 nM	79.4±1.4%																			percent of DMSO vehicle control (HCK; primary screen, 10 μM): 82.2%; percent of DMSO vehicle control (PIK3R2(SH2dom.C-term.); primary screen, 10 μM): 49.5±7.1%; percent of DMSO vehicle control (PIK3R3(SH2dom.C-term.); primary screen, 10 μM): 27.7±0.9%; percent of DMSO vehicle control (SHC3; primary screen, 10 μM): 98.9±6.8%; percent of DMSO vehicle control (SOCS2; primary screen, 10 μM): 104.8%; percent of DMSO vehicle control (SOCS3; primary screen, 10 μM): 149.7%; Kd (YES): 3800 nM; percent of DMSO vehicle control (YES; primary screen, 10 μM): 14.2±1.5%
CC(=O)N[C@@H](Cc1ccc(CP(=O)(O)O)cc1)C(=O)NC1(C(=O)N[C@@H](CC(N)=O)C(=O)NCCCc2c(O)ccc3ccccc23)CCCCC1 [CGP78850]	48 nM	77.7±20.9%	60 ± 12.1%	No Hit	0.4 ± 0.4%	0%	29.2 ± 2.8%	119 ± 4.7%	116 ± 4.4%	66.7 ± 8.3%											Kd (SHC3): 1800 ± 240 nM
CC[C@H](C)[C@H](NC(=O)[C@H](CCC(=O)O)NC(=O)[C@H](CCC(=O)O)NC(=O)[C@H](Cc1ccc(OP(=O)(O)O)cc1)NC(=O)/C=C/c1ccc(O)c(O)c1)C(=O)N[C@@H](CCC(=O)O)C(=O)O [Caffeic acid-pYEEIE] (Caffeoyl-[pY]EEIE-OH)	230 ± 180 nM	9.0±2.9%	0%	No Hit	0.3 ± 0.9%	0.8 ± 0.1%	0%	2.6 ± 0.1%	5.3 ± 0.3%	0%											Kd (HCK): 6 ± 0.97 nM; Kd (SHC3): 130 ± 120 nM; Kd (SHIP1): 5800 ± 1600 nM; Kd (SOCS2): 1300 ± 880 nM; Kd (SOCS3): 1800 ± 2000 nM; Kd (YES): 1 ± 0.47 nM
O=C(CCl)Nc1cccc(CNC(=O)[C@H](Cc2ccc(OP(=O)(O)O)cc2)NC(=O)Cc2ccc(F)cc2)c1 [MN551]		19.1%		No Hit							92.7%	30.3%	4400 nM	27.3 ± 3.8%	91.2 ± 1.9%	400 nM	0%	No Hit	24.4%	46.5 ± 2.1%	KD (SHIP1; dose-response): No Hit
NC(=O)CC[C@H](NC(=O)[C@@H]1CC[C@@H]2CCN(C(=O)CCCCCC#Cc3cccc4c3CN(C3CCC(=O)NC3=O)C4=O)C[C@H](NC(=O)c3cc4cc(C(F)(F)P(=O)(O)O)ccc4[nH]3)C(=O)N21)C(=O)NC(c1ccccc1)c1ccccc1 (stereo partly drawn) [SD-36]		44.1±5.9%	56.4 ± 3.2%	No Hit	18.5 ± 3.9%	57.8 ± 6.8%	74.5 ± 0.8%	98.5 ± 5.4%	100 ± 1.2%	73.3 ± 11.9%											
CC(=O)N1CC[C@H]2CC[C@@H](C(=O)N[C@@H](CCC(N)=O)C(=O)NC(c3ccccc3)c3ccccc3)N2C(=O)[C@@H](NC(=O)c2cc3cc(C(F)(F)P(=O)(O)O)ccc3[nH]2)C1 [SI-109]		101.8%	91.9%		120%	137%	122%	142%	153%	113%											
C/C(=C\C(=O)N[C@H](C(=O)N1CCC[C@H]1C(=O)N(c1ccccc1)c1ccc(I)cc1)C(C)(C)C)c1ccc(OP(=O)(O)O)cc1 [STAT6-IN-1]		4.4±1.3%									48.8 ± 5.2%	0.2 ± 0.1%	780 ± 42 nM	1 ± 0.1%	35.3 ± 4.8%	1500 ± 870 nM	0%	No Hit	39.3 ± 22.1%	29.5%	Kd (PIK3R2(SH2dom.C-term.)): 1000 ± 78 nM; Kd (SHC3; dose-response, read-out: KD): 3600 ± 570 nM; Kd (SHIP1; dose-response, read-out: KD): 4400 ± 420 nM; Kd (YES; dose-response, read-out: KD): 9200 ± 380 nM
CC(C)(C)[C@H](NC(=O)/C=C/c1ccc(OP(=O)(O)O)cc1)C(=O)N1CCC[C@H]1C(=O)N(c1ccccc1)c1ccc(I)cc1 [STAT6-IN-3]		53.7±3.2%									77.4 ± 4.3%	6.1 ± 1.6%	1020 ± 260 nM	26.9 ± 10.2%	50.6 ± 6.4%	1010 ± 13 nM	7.9 ± 50.6%	No Hit	52.6 ± 50.6%	37.7 ± 27.8%	Kd (PIK3R2(SH2dom.C-term.)): 490 ± 80 nM
O=C(COc1ccc2cc(C(=O)Nc3ccccc3)ccc2c1)NCc1ccc(OP(=O)(O)O)c(OP(=O)(O)O)c1 [Stafib-1]		61.1±7.3%									77 ± 19.3%	84.2 ± 34.7%		86.5%	87 ± 14.4%		47.9 ± 29%		72.7 ± 29%	63.1 ± 24.3%	
